Data as given in US11278526B2, “Compounds and methods for treating lupus” (RECEPTOS LLC, priority 2016, dated 2022).
“Also recorded” adds a separate entry of the source.

Columns and labels:
Format in all cases: in vivo
[1] = test system: CD4+ T cells, CD8+ T cells, and CD19+ B cells; test: Peripheral lymphocyte counts from whole blood by flow cytometry; settings: NZBWF1 mice
Method: (§1) Lymphocyte counts were measured from whole blood taken at 23, 31, and 36.5 weeks using flow cytometry. Cells were gated for CD4+ T cells, CD8+ T cells, and CD19+ B cells. […] Serum blood urea nitrogen (BUN) was also measured at termination to assess kidney function.

NZBWF1 mice [2] = test: Serum blood urea nitrogen (BUN) at termination
Method: as §1
As in Example 4, serum blood urea nitrogen (BUN) was measured at termination to assess kidney function.

NZBWF1 mice [3] = test: Tertiary Lymphatic Tissue (TLT) scoring in kidney histology
From the text: To directly assay disease progression, left kidney histology was observed and sections were stained using H&E (left kidney fixed in 4% PFA prior to staining for infiltrating PMN, lymphocytes, and TLTs) or PAS (for analysis of glomerular glycogen and glycoproteins). No neutrophils were observed. The number of aggregates was counted per section.

anti-dsDNA antibodies = test: Serum anti-dsDNA antibody titers by ELISA; settings: NZBWF1 mice
Method: Serum anti-dsDNA antibody titers are used as an indicator of SLE state (see, e.g., Kavanaugh et al., “Guidelines for Clinical Use of the Antinuclear Antibody Test and Tests for Specific Autoantibodies to Nuclear Antigens”, Archives of Pathology & Laboratory Medicine, 124:1, 71-81 (2000)) in most (although not all) patient populations, (see, Isenberg et al., Rheumatology 46:1052-1056, 2007). Titers were measured at 23, 31, 36.5, and 42 weeks. ELISA was performed using an anti-dsDNA ELISA kit (Shibayagi Co., Ltd., cat. no. RSHAKRDD061) following manufacturer's protocol. Results were expressed as optical density (OD) and as arbitrary units per mL. The ELISA standard curve was generated from a pool of sera from mice used a previous study with a known high concentration of anti-dsDNA antibodies. The highest concentration used in the standard curve was 1:100 of that pooled sera. All test samples were diluted 1000-fold for testing. Data was analyzed using http://www.elisaanalysis.com.
As in Example 8, serum anti-dsDNA antibody titers were measured at 22, 30, 36, and 42 weeks. ELISA was performed using an anti-dsDNA ELISA kit.

[4] = test system: inflammatory and immune response genes; test: Kidney mRNA levels of inflammatory and immune response genes (QuantiGene Multiplex Assay); settings: NZBWF1 mice; 3 mpk PO; n=5
Method: (§2) As explained above, SLE is characterized by aberrant recognition of healthy “self” tissue as antigenic. The resulting immune response is characterized by inflammation. To measure SLE status, mRNA levels were measured for an array of inflammatory and immune response genes from kidneys collected at termination or week 23 (naïve) and stored in RNAlater (n=5). mRNA was quantified using QuantiGene Multiplex Assay.

profibrotic genes = test: Kidney mRNA levels of profibrotic genes; settings: NZBWF1 mice
Method: as §2
SLE-related inflammation can lead to fibrotic scarring. mRNA levels were measured for an array of profibrotic genes. […] Expression signals of MMP10, IL-2, IL-6, and TNF were also measured, but were below LLOQ (data not shown).

NZBWF1 mice [5] = test: Survival in NZBWF1 SLE mouse model; settings: 0.3, 1.0, 3.0 mg/kg PO QD, Logrank p=0.0229, 0.0308, 0.0201
Method: As in Example 2, compound 5 was tested for efficacy in the same NZB×NZW F1 (“NZBWF1”) mouse model for SLE as compound 148. Six groups of NZBWF1 mice (Jackson Laboratories, stock #100008) were used in the study and were acclimated to the research facility for 6 weeks prior to the start of the study. Weekly measurements of proteinuria (excess serum proteins present in the urine) and body weight began at 20 weeks of age. At 22 weeks of age, the mice were assigned to groups in a balanced manner in order to achieve average body weight and average proteinuria measurements across the groups. One “naive” group consisting of 10 mice was euthanized at the start of treatment and used as a source of tissue for analysis. Treatment began at 22 weeks of age.
The five treatment groups were administered cyclophosphamide (positive control, 20 mice; introduced gradually to reduce toxicity (IP, once a week, 10 mg/kg at Weeks 22 and 23 and 50 mg/kg from Week 24 to the end of the study)), vehicle (negative control, 20 mice), or compound 5 (three groups of 20 mice), beginning at 22 weeks of age and observed over the course of 20 weeks. The three groups dosed with compound 5 received 0.3, 1.0, and 3.0 mg/kg PO QD, respectively (20 mice per dosage). Surviving animals were sacrificed at 42 weeks. […] Disease development was evaluated as disclosed in the following examples.

S1P1R = target: T1, S1P1R (Mus musculus, UniProt O08530); test: S1P1R cell surface expression on splenic CD4+ T cells by flow cytometry; settings: NZBWF1 mice, splenocytes at termination; 0.3, 1.0, 3.0 mg/kg PO QD
T1 construct: from tissue; host or cells: spleen
T1 sequence (O08530 whole entry): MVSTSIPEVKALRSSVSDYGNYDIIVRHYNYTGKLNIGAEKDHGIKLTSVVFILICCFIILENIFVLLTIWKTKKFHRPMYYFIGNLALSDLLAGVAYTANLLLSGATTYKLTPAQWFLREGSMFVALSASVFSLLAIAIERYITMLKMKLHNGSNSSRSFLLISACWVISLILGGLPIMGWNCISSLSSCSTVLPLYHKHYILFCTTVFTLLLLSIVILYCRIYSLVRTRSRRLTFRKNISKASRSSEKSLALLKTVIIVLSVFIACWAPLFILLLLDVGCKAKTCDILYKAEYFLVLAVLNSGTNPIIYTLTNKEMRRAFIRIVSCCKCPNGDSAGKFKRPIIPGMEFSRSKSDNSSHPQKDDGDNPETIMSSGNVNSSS
From the text: S1P1R is expressed on T and B lymphocytes and is the target for modulation by compound 5. Following agonism of the receptor by compound 5, the receptor is internalized and degraded. To determine whether internalization is occurring in T cells following compound dosing in vivo, both naïve and activated CD4+ T cells were examined for cell surface expression of S1P1R. At termination, spleens were harvested and splenocytes isolated and analyzed for immune cell populations by antibody staining and flow cytometry. S1P1R expression was measured on both activated CD4+ T cells (CD3+CD4+CD44+CD62L−) and naïve T cells (CD3+CD4+CD44−CD62L+).

## CC(C)Oc1ccc(-c2nc(-c3cccc4c3CC[C@@H]4N)no2)cc1C#N [compound 148, (S)-5-(3-(1-amino-2,3-dihydro-1H-inden-4-yl)-1,2,4-oxadiazol-5-yl)-2-isopropoxy-benzonitrile]
[1]; whole blood at 23, 31 and 36.5 weeks, all three doses (0.3, 1.0, 3.0 mg/kg PO QD), p<0.05
  Reduction of overall lymphocyte counts relative to vehicle: > 90%
[1]; whole blood, flow cytometry
  CD4+ T cell and CD8+ T cell counts relative to cyclophosphamide: Significant reductions
NZBWF1 mice [2]; 3 mg/kg PO QD, p<0.05
  Serum BUN at termination vs vehicle: significant reduction in serum BUN
NZBWF1 mice [3]; 1.0 mg/kg or 3.0 mg/kg PO QD
  Kidney TLT scores compared to naïve mice: TLT scores similar to naïve mice
NZBWF1 mice [3]; 0.3, 1.0, 3.0 mg/kg PO QD, p<0.05, lesser degree than cyclophosphamide
  Kidney TLT scores relative to vehicle: significantly reduced TLT scores relative to vehicle
anti-dsDNA antibodies; all three dosages 0.3, 1.0, 3.0 mg/kg PO QD, ELISA optical density
  Serum anti-dsDNA antibody titers: decreased antibody titers at week 29; also recorded: decrease was not sustained over the course of the study
[4]
  Kidney mRNA level of CCL5 relative to control: decreased levels
  Kidney mRNA level of CXCL9 relative to control: decreased levels
  Kidney mRNA level of CXCL10 relative to control: decreased levels
  Kidney mRNA level of IL-1β relative to control: decreased levels
  Kidney mRNA level of IL-10 relative to control: decreased levels
  Kidney mRNA level of TNFSF13b/BAFF relative to control: decreased levels
Profibrotic genes; 3 mpk PO
  mRNA level of Cdcd88a/Girdin relative to control: decreased levels
  mRNA level of LOXL1 relative to control: decreased levels
  mRNA level of Lipocalin 2 relative to control: decreased levels
  mRNA level of TGFβ2 relative to control: decreased levels
  mRNA level of TIMP1 relative to control: decreased levels
  mRNA level of Transgelin relative to control: decreased levels
Profibrotic genes; following administration of compound 148
  IFGBP2 mRNA levels: appeared to increase somewhat

## CC(C)Oc1ccc(-c2nc(-c3cccc4c3CC[C@@H]4NCCO)no2)cc1C#N [compound 5, (S)-5-(3-(1-(2-hydroxyethylamino)-2,3-dihydro-1H-inden-4-yl)-1,2,4-oxadiazol-5-yl)-2-isopropoxy benzonitrile]
NZBWF1 mice [5]
  Survival compared to vehicle: improved survival compared to vehicle treated animals
NZBWF1 mice [2]; all doses 0.3, 1.0, 3.0 mg/kg PO QD
  Serum BUN at termination vs vehicle: significant reduction in serum BUN
anti-dsDNA antibodies; 3 mg/kg PO QD, week 42, less than cyclophosphamide
  Serum anti-dsDNA antibody titers: decreased antibody titers at week 42
S1P1R
  S1P1R expression on activated CD4+ T cells (CD3+CD4+CD44+CD62L−): reduced in a dose-dependent manner
  S1P1R expression on naïve CD4+ T cells (CD3+CD4+CD44−CD62L+): reduced in a dose-dependent manner
